From a melting point compilation (Tetko et al.; mined from patent text by program, amines drawn as free bases though some values may be those of a salt)
Residues, ends and D or L forms follow the SMILES beside them. *: point of attachment. Propionyl = CCC(=O)*; NHPh = c1ccc(N*)cc1

SMILES	melting point [°C]
CCOC(=O)Cc1ccc(C(=O)CN2CCN(c3ccncc3)CC2)cc1	122 to 124
O=C1Nc2ccccc2S(=O)c2ccccc21 (stereo not given)	308 to 310
CCCCCNC(=O)N(CCCc1ccncc1)CCC12CC3CC(CC(C3)C1)C2	47 to 50
CN(CCOc1ccc(NC(=O)c2cccc3c(=O)c4ccccc4[nH]c23)cc1)Cc1ccccc1	173
Cn1nc(-c2c(F)cccc2F)nc1-c1ccc(OCc2ccc(OC(F)(F)F)cc2)c(Cl)c1	132 to 136
O=C1C=C(O)CC(c2cc(C3CCOC3)no2)C1 (stereo not given)	142 to 144
CCCn1c(=O)c2[nH]c(C(CC)Cc3ccccc3)nc2n(CCC)c1=O (stereo not given)	180
O=C(CCC1CCN(C(=O)OCc2ccc([N+](=O)[O-])cc2)CC1)c1ccc2c(c1)CN1C(=O)c3ccccc3C1CC2 (stereo not given)	179 to 181
Cc1nc(Nc2ccc3[nH]ccc3c2)c2sc(-c3ccccc3)cc2n1	205 to 210
Cc1cc(COc2cccc3c2CN(C2CCC(=O)NC2=O)C3=O)on1 (stereo not given)	278 to 280
Cc1cccc(N2C(=S)SC(C)C2(C)O)n1 (stereo not given)	129
CC12CCC3c4ccc(C(=O)O)cc4CCC3C1CCC2C(=O)c1cccs1 (stereo not given)	177 to 179
C#CCSc1cc(-c2nn(C)c(SC)c2Cl)c(F)cc1Cl	93 to 96
CNC(=O)c1ccccc1Nc1nc(Nc2cccc3c2N(C)CCN(C)C3=O)ncc1Cl	243 to 244
Nc1nc2c(s1)CCN(C(=O)c1ccc(NC(=O)c3ccccc3-c3ccccc3)cc1)c1ccccc1-2	> 250
N#CC(=C(Nc1cc(C(F)(F)F)cc(C(F)(F)F)c1)NC1CCCC1)S(=O)(=O)c1ccc(Cl)cc1	199 to 200
CC(C)S(=O)(=O)NC(=O)Nc1ccc(Cl)c(Cl)c1	151 to 154
Fc1ccc(C(OCCCN2CCN(C(c3ccccc3)c3ccccc3)CC2)c2ccc(F)cc2)cc1	78 to 79
CN(C1c2cc(O)ccc2OC(C)(C)C1O)S(C)(=O)=O (stereo not given)	204 to 206

SMILES	melting point [°C]
COC(OC)c1cc(=O)c2ccccc2o1	64 to 68
O=c1[nH]cnc2cccnc12	343 to 345
COC(=O)c1c(SC)c2cc(OC)ccc2n1C	89 to 91
CC(C)(C(=O)O)c1nc2ccc(NCCCN3CCC(OC(c4ccccc4)c4ccccc4)CC3)nn2c1Cl	133 to 135
CCS(=O)(=O)Nc1cc(C2CCCCC2)cc2c1CCCC2c1c[nH]cn1 (stereo not given)	207 to 209
CSc1nc(P(=O)(C2CCCCC2)C2CCCCC2)cc(P(=O)(C2CCCCC2)C2CCCCC2)n1	197 to 198
Cn1nnnc1SCCCCSc1ccccn1	49 to 51.5
CCc1noc(-c2ncc3[nH]c4ccccc4c3n2)n1	250 to 257
O=C(Nc1cccc(C2CN3CCSC3=N2)c1)c1ccc(Br)nc1 (stereo not given)	149 to 153
O=C(O)C(F)(F)c1cccc(OCc2ccccc2Cl)c1OCc1ccccc1Cl	55 to 57
CC(=O)Nc1ccc(S(=O)(=O)Nc2ccccc2)cc1	209 to 210
COc1ccc(/C=C/C(=O)c2ccc(C(=O)O)cc2)c(-c2cccs2)c1	209 to 211
CS(=O)(=O)c1ccc(CC(=S)N2CCOCC2)cc1	198 to 199
COc1cc(Nc2c(C#N)cnc3cc(-c4cncc(CN5CCOCC5)c4)ccc23)c(Cl)cc1Cl	141 to 143
CC(C)CC(NC(=O)c1ccc(Cl)cc1)NC(=NC#N)Nc1cccnc1 (stereo not given)	193 to 194
CC(C)OC(=O)COc1ccc(C(=O)CN2CCN(c3ccncc3)CC2)cc1	64 to 66
N#CC1=C(C#N)Sc2nc3cc(Cl)ccc3nc2S1	278 to 280
CCCCC1c2cc(NC(=O)CC(C)(C)C)c(C)c(C)c2OC1(C)C (stereo not given)	129 to 130
COc1c(F)cc(F)c(OC)c1-c1ccc(C[C@H](NC(=O)c2c(Cl)cccc2Cl)C(=O)O)cc1	201 to 202

SMILES	melting point [°C]
COc1cccc(Cn2cnc3c(-c4ccco4)nc(Cl)nc32)c1	160 to 161
CCCOc1nsc(N)c1C#N	122 to 125
CSc1sc(C(N)=O)c2c1-c1sc(C(N)=O)cc1CC2	> 300
Cc1c(SCCCSc2ccc3ncc([N+](=O)[O-])n3n2)ccnc1CO	127 to 129
CC(C)(C)OC(=O)N1CCN(C(=O)C(F)(F)F)CC1	66 to 68
CS(=O)(=O)NC(=O)CCCCCCCCCCCNC(=O)NC12CC3CC(CC(C3)C1)C2	103
CCC(C)(CC)c1nnc(NC(=O)c2c(OC)cccc2OC)[nH]1	279 to 280
CCC(=O)N[C@@H](C)C(=O)N[C@@H](C)C(=O)Nc1ccccc1 (Propionyl-Ala-Ala-NHPh)	281 to 284
CC(C)(Oc1ccc(NC(=O)Nc2cc(Cl)cc(Cl)c2)cc1)C(=O)O	182 to 184
CN(C)C=Nc1ccc(I)cc1C#N	53 to 55
CON1C=C2C=C(SC)N=C(Cl)N2N1	243 to 244
COc1c(C=Cc2ccc(C=CC3=C(C#N)C(=C(C#N)C#N)OC3(c3ccccc3)C(F)(F)F)s2)cc2c3c1CCCN3CCC2 (stereo not given)	156 to 160
CCN(CC)CCCCNc1ncc2c(n1)N(CC)C(=O)N(c1cc(OC)cc(OC)c1)C2	83 to 85
CNC(=O)C(NC(=O)C(CC(C)C)C(CC(=O)OC)SC(C)=O)C(C)OCc1ccccc1 (stereo not given)	105 to 106
COC(=O)[C@H]1CC[C@H](c2[nH]nc3c2C(=O)c2c(NC(=O)NN4CCOCC4)cccc2-3)CC1	259 to 261
O=C1CCCN1C(=O)c1ccc(OCc2ccccc2)cc1	115 to 117
C1=C(c2cccc3c2ccn3Cc2ccccc2)CCN(Cc2ccccc2)C1	154
Cc1nc(N)nc(N)c1-c1cc(NS(C)(=O)=O)ccc1Cl	234 to 240
Oc1ccccc1[C@@H]1C[C@H]2C=C(c3c[nH]c(-c4ccc(F)cc4)c3-c3ccncc3)CCN2C1	195 to 196

Further lines, results first:

melting point [°C]	SMILES
175	c1ccc(CN2CCN(c3ccnc4[nH]ccc34)CC2)cc1
160 to 164	COc1cccc(-n2c(CC(c3ccccc3)c3c[nH]c4ccccc34)nc3ccccc3c2=O)c1 (stereo not given)
74 to 78	CCOC(=O)c1ccc2c(c1)sc1ccccc12
128 to 130	CC(=O)Nc1cc(O)cc(C(C)CCCc2ccccc2)c1 (stereo not given)
141	CC(C)S(=O)(=O)C(C#N)=Cc1c(Cl)n(C)c2ccccc12
209 to 210	CCOC(=O)Oc1ccc(C=CC(=O)NC2CCCNC(=O)C2)cc1 (stereo not given)
89 to 90	CCOC(=O)C1=C(COCCNS(N)(=O)=O)NC(C)=C(C(=O)OC)C1c1cccc(Cl)c1Cl (stereo not given)
147 to 150	CN1CC(C(=O)N(Cc2ccc(F)cc2)OCC(=O)O)=C(O)C1=O
258 to 260	O=C1c2ccccc2C(=O)N1CC(=O)N1c2ccccc2N(Cc2ccc3ccccc3n2)C(=O)[C@H]2CCC[C@H]21 (relative stereo)
99 to 101	Fc1ccc2nc(Cl)ccc2c1
211 to 213	CCOCc1nc2c(N)nc3cc(-c4ccncc4)ccc3c2n1CC(C)C
108 to 109	COc1ccc(Cc2nnc(-c3ccc4occc4c3)o2)cc1
152 to 153	Cc1oc(-c2ccccc2)nc1COc1ccc(COc2nn(-c3ccccc3)cc2C=O)cc1
115 to 117	O=COC(CCl)(CC(Cl)(Cl)Cl)c1cc(Cl)cc(Cl)c1 (stereo not given)
219 to 221	CC(=O)NCc1nc(-c2ccc3c(c2)Nc2ccccc2S3)cs1
124	COc1ccc(Oc2cccc(C(F)(F)F)c2)c(C(=O)O)c1
74 to 76	OCCOc1ccc(Oc2ccc(F)cc2)cc1
330 to 332	COc1ccc(-c2cc3nccnc3[nH]2)cc1OCC(=O)O
201 to 204	CSC1C(=O)Nc2ccc(C3=NNC(=O)SC3)cc21 (stereo not given)

melting point [°C]	SMILES
115	N#Cc1cccc(NC2CCN(Cc3cc(F)cc(C(F)(F)F)c3)CC2)n1
204 to 206	O=C1Nc2cc(C(F)(F)F)ccc2N2CCN(CCc3ccncc3)CC12 (stereo not given)
174 to 178	O=C(Nc1ccc(N2CCCCC2)cc1)N(C[C@H]1CC[C@H](CN(C(=O)Nc2ccc(N3CCCCC3)cc2)C2CCCCC2)CC1)C1CCCCC1
193 to 195	c1ccc(CNc2nc(-n3cncn3)nc3ccccc23)cc1
112 to 114	COC(=O)C1=C(C)NC(C)=C(C(=O)OCCCBr)C1c1cccc([N+](=O)[O-])c1 (stereo not given)
70	COC(=O)Cc1ccc(CNC(=O)C2Cc3ccccc3N2S(=O)(=O)c2ccc(-c3cccc(Cl)c3)cc2)cc1 (stereo not given)
279	Cc1cc(C#N)cc(C(=O)Nc2ccc(C#N)cn2)n1
168 to 170	CC(C)(C)OC(=O)n1cccc1-c1ccc2c(c1)C(C)(C)C(=O)N2
91 to 94	COc1cc(OC)c2c(c1)N1CCCCC1CC2=O (stereo not given)
180 to 189	Cc1ccc(S(=O)(=O)N2CCCC2c2nnnn2[C@@](C)(Cc2ccc(N(C(=O)OC(C)(C)C)C(=O)C3CCNCC3)cc2)C(=O)O)cc1 (stereo not given in full)
116 to 122	Nc1cccc(Cn2c(-c3ccc(NC(=O)c4cccc(Br)c4)cc3)ccc2-c2ccccc2Cl)n1
189 to 191	Cn1cc(C(=O)NCc2ccc(Cl)cc2)c(=O)c2cc(CN3CCOCC3)cc(C#CCF)c21
143 to 145	CCCCC1CSC(C(=O)Nc2c(SC)cc(C)nc2SC)c2cc(OC)c(OC)cc2C1 (stereo not given)
144	Cc1ccc(-c2cn(C)cc(-c3ccccc3)c2=O)cc1
243 to 245	CCNC(=O)CC1CCN(Cc2cnc3c(C)c(NC(=O)c4ccc(-c5ccc(F)cc5)cc4)ccc3c2)CC1
95 to 97	COc1ccc(CN(Cc2ccc(OC)cc2)c2nccc(-c3ccc(-c4ccc(N(c5ccccc5)c5ccccc5)cc4)cc3)n2)cc1
154	COC(=O)C1Cc2c([nH]c3ccccc23)C(c2ccccc2Cl)N1 (stereo not given)
138 to 139	COc1cc(OCC(=O)O)c(C)cc1SCc1ccc(-c2cccc(C(F)(F)F)c2)cc1
101 to 103	COCCOc1ccc(CCCN2C(=O)c3ccccc3C2=O)c(Oc2ncc(C(F)(F)F)cc2Cl)c1
